In patent US20090274675A1, “Migraine tonic” (priority 2008, published 2009):

Columns and labels:
[1] = test system: women suffering from severe migraine; test: Intravenous magnesium in intra-partum and post-partum women with severe migraine; assay type: in vivo, human; conditions: intravenous injection
Experimental: Use of magnesium is useful to control this neuronal excitability, which is one factor that perpetuates migraine. […] In this invention the unit dosage of Magnesium Citrate to be used is 250 to 500 mg. per total formulation dosage.

migraine headache = conditions: several clinical trials in the U.S and Europe; cited from earlier work

SMILES: [Mg+2] [magnesium, Magnesium]
- effect on severe migraine [1]: dramatic effect

SMILES: Cc1cc2nc3c(=O)[nH]c(=O)nc-3n(C[C@H](O)[C@H](O)[C@H](O)CO)c2cc1C [riboflavin, Riboflavin]
- improvement in migraine headache (migraine headache): statistically significant
